Measurements from patent publication US20240252638A1, “INDUCER FOR REPROGRAMMING T CELL INTO NK-LIKE CELL AND APPLICATION OF INDUCER” (ZHAOTAI IMMUGENE BIOMEDICINE (HONG KONG) LIMITED, priority 2021, published 2024).

Assays:
[1] = test system: primary T cells in human umbilical cord blood; assay: Detection of phenotypes of reprogrammed T cells through flow cytometry (NKp30/NKp46 expression); assay type: cell-based; conditions: for expression of NKp46 and NKp30 in CD4 and CD8 among induced T cells compared with DMSO: induced by a single inhibitor until Day5; for expression of NKp46 and NKp30 in CD4 and CD8 among induced T cells compared with DMSO / induction of T cells to reprogram into NK-like cells: concentrations of Table 1; for induction of T cells to reprogram into NK-like cells: induced until Day5; for expression rate of NKp30 in CD4 T cells: drug concentrations of Table 1 (DAC 0.2 μM, GSK-3484862 2 μM, Mocetinostat 0.2 μM), DMSO group approximately 7.74%; for expression rate of NKp46 in CD8 T cells: DMSO group approximately 0.26%; for expression rate of NKp30 in CD8 T cells: DMSO group approximately 12.2%
Description: In this example, umbilical cord blood mononuclear cells (UCBMCs) were separated from the umbilical cord blood through Ficoll-hypaque (polysucrose-meglumine diatrizoate) density gradient centrifugation, 4×10^7 CD3 positive UCBMCs were taken and cultured overnight with a cell density of 2×10^6 cells/mL, remaining UCBMCs were frozen, and T cells were sorted by the Pan T cell isolation kit and cultured for a period of time to obtain ≥4×10^7 CD3 positive T cells with a viability rate of ≥70% and without contamination by exogenous microorganisms such as bacteria, fungi and mycoplasmas.
(1) T cells activated by TransAct for 36 h were taken and centrifuged at 300 g for 5 min, the T cells were resuspended with an IMDM+5% FBS+1% double antibody (a 100×penicillin-streptomycin mixed solution)+IL2 (300 U), and a T cell density was adjusted to (2−3)×10^5 cells/mL.
(2) Groups of small molecule inhibitor drugs were added to the resuspended T cells, respectively. Half of media were changed every day, and extra new drugs were added according to volumes obtained after the media were changed. A day when the drugs were initially added was denoted as Day0, and when the drugs continued to be added until Day5, the mixtures were centrifuged at 300 g for 5 min, and the media were changed. Then, the cells continued to be cultured with an IMDM+5% FBS+1% double antibody (a 100×penicillin-streptomycin mixed solution).
(1) 200 μL each of the T cells induced by DAC until Day6, the T cells induced by GSK-3484862 until Day 6, the T cells co-induced by DAC and Mocetinostat until Day6, the T cells co-induced by GSK-3484862 and Mocetinostat until Day6 and the untreated T cells were taken and centrifuged at 400 g for 4 min. After supernatant was discarded, 50 μL phosphate buffer (PBS) was added to resuspend the cells. Then, 0.5 μL each of CD3 PE-Cy7, CD4 APC-Cy7, CD8 FITC, NKp30 PE and NKp46 APC were added to each of the mixtures and incubated for 30 min at 4° C. in the dark, 500 μL PBS was added to dilute the antibody and centrifuged at 400 g for 4 min, supernatant was carefully discarded, and 300 μL PBS was added to resuspend the cells, transferred to a flow tube and loaded on a flow cytometer.
(2) Data analysis was performed by BD-flowcyto analysis software, and 10000 cells were collected in each tube. The appearance of a significant increase in NKp-30 and the appearance of an NKp46-positive cell population were used as signs of successful reprogramming, and a percentage of positive T cells was calculated.
In addition, the T cells induced by GSK-3484862 until Day5, the T cells induced by Tazemetostat until Day5, the T cells induced by GSK126 until Day5, the T cells co-induced by Tazemetostat and GSK-3484862 until Day5, the T cells co-induced by GSK-3484862 and GSK126 until Day5 and the untreated T cells were taken and subjected to the same operations, and phenotypes of the reprogrammed T cells were identified through flow cytometry. The results are shown in FIGS. 9A, 9B, 10A, 10B, 11A, 11B, 12A, 12B, 13A, 13B, 14A and 14B.

[2] = test system: K562 cells (human chronic myeloid leukemia cells); assay: In vitro killing detection of reprogrammed T cells (luciferase); assay type: cell-based; conditions: effector-target ratios 16:1 to 1:4, co-cultured 24 h, vs T cells treated by DMSO
Description: (1) The T cells induced by GSK-3484862, the T cells induced by DAC, the T cells induced by Mocetinostat, the T cells co-induced by GSK-3484862 and Mocetinostat, the T cells co-induced by DAC and Mocetinostat and the T cells treated by DMSO were mixed with 1×10^4 K562 cells (human chronic myeloid leukemia cells) according to different effector-target ratios (16:1, 8:1, 4:1, 2:1, 1:1, 1:2 and 1:4), respectively, and added to a 96-well cell culture plate. Three duplicate wells were set for each group, and a group with the addition of tumor cells alone was set as a positive control. After centrifugation at 250×g for 5 min, the cells were placed in a 5% CO2 incubator at 37° C. and co-cultured for 24 h.
(2) After 24 h, 100 μL/well luciferase substrate (1×) was added to the 96-well cell culture plate, and the cells were resuspended and uniformly mixed. RLU (Relative light units) were immediately measured by a multifunctional microplate reader for 0.1 s. A killing proportion calculation formula of a quantitative killing efficiency assessment method using a luciferase is as follows:
100%×(control well reading-experimental well reading)/control well reading (blank group (without the addition of the cells) reading may be ignored).
In addition, according to the same method, the T cells induced by GSK-3484862, the T cells induced by Tazemetostat, the T cells induced by GSK126, the T cells co-induced by GSK-3484862 and Tazemetostat and the T cells co-induced by GSK-3484862 and GSK-126 were separately used and the T cells treated by DMSO was used as a control to detect killing abilities of the reprogrammed T cells against K562 cells.

[3] = test system: reprogrammed T cells co-cultured with K562; assay: Secretion of cytokines IFN-γ and granzyme B by reprogrammed T cells co-cultured with K562 (ELISA); assay type: cell-based, human; conditions: co-cultured with K562 for 48 h, supernatant
Protocol: The T cells induced by DAC, the T cells induced by GSK-3484862, the T cells co-induced by DAC and Mocetinostat, the T cells co-induced by GSK-3484862 and Mocetinostat and the T cells treated by DMSO were co-cultured with human chronic myeloid leukemia cells K562 for 48 h, respectively, and expression levels of cytokines IFN-γ and a granzyme B in supernatant were detected through ELISA.

[4] = T cells induced until Day6, drug concentrations of Table 1

Structure (SMILES) | expression of NKp46 and NKp30 in CD4 and CD8 among induced T cells compared with DMSO [1] | induction of T cells to reprogram into NK-like cells [1] | in vitro killing of K562 by induced T cells [2] | expression rate of NKp30 in CD4 T cells ([1]; T cells induced until Day6) | expression rate of NKp46 in CD8 T cells [1, 4] | expression rate of NKp30 in CD8 T cells [1, 4] | IFN-γ and granzyme B secreted by induced T cells (immune effect) [3] | expression rate of NKp46 in CD4 T cells [1, 4]
CC[C@H](C)n1cc(C)c2c(C(=O)NCc3c(C)cc(C)[nH]c3=O)cc(-c3ccc(N4CCNCC4)nc3)cc21 [GSK126] | significantly expressed | can induce the T cells to reprogram into NK-like cells | effectively kill |  |  |  |  | 
Nc1ncn([C@H]2C[C@H](O)[C@@H](CO)O2)c(=O)n1 [DAC, decitabine] |  |  |  | approximately 83.2% | approximately 11.2% | approximately 60.5% |  | 
Nc1ccccc1NC(=O)c1ccc(CNc2nccc(-c3cccnc3)n2)cc1 [Mocetinostat] |  |  | effectively kill |  |  |  |  | 
CCc1c(C#N)c(SC(C(N)=O)c2ccccc2)nc(N(C)C)c1C#N (stereo not drawn) [GSK-3484862] | significantly expressed | can induce the T cells to reprogram into NK-like cells | effectively kill | approximately 81.4% | approximately 21.4% | approximately 50.8% | produce an immune effect | approximately 5.16%
